# Assay results taken from article PMC12557438, “Thiadiazino-indole, thiadiazino-carbazole and benzothiadiazino-carbazole dioxides: synthesis, physicochemical and early ADME characterization of representatives of new tri-, tetra- and pentacyclic ring systems and their intermediates” (Beilstein Journal of Organic Chemistry, 2025).
# Like-named read-outs stand apart in the source and are kept apart here.
# Columns and labels:
# [1] = Kinetic aqueous solubility assay; assay type: physicochemical; parameters: key to Kinetic solubility (no value): –: Compounds with no value were under the detection limit; conditions: for solubility kinetic at 2 h: PBS buffer, pH 6.5, aqueous buffer, kinetic from dmso stock; for Kinetic solubility (no value): PBS pH 6.5, 2 hours, dash = under the detection limit; for Kinetic solubility in words: wording of the text, outside the class key
# Description: Kinetic aqueous solubility assay. All compounds were dissolved in DMSO to make stock solutions at 10 mM concentration. […] 5 μL of the stock solutions was pipetted into a 96-well plate containing 495 μL PBS (pH 6.5) in each well to achieve 100 μM target concentration (1% DMSO). […] The plate was then sealed and shaken for 2 hours at room temperature. Each compound was investigated in 3 replicates. After 2 hours, the samples were filtered on a MultriscreenHTS filter plate (MSSLBPC, polycarbonate membrane, Merck KGaA, Darmstadt, Germany) by a Millipore Vacuum Manifold (Merck KGaA, Darmstadt, Germany). Before analyzing, 20 vol % acetonitrile was added to each well to avoid sample precipitation during HPLC analysis.
# (§1) Analytical methods. […] For a 7-minute long gradient program, eluents A (0.1% formic acid in water) and B (0.1% formic acid in acetonitrile) were used as follows: initial conditions with 30% B were kept for 1 minute, then 90% B was achieved within 3 minutes, kept for further 1 minute, finally the initial condition was adjusted and equilibrated for further 2 minutes. 5-Point calibration series were measured from each compound resulting in R^2 ≈ 0.9990–0.9999.
# [2] = Determination of the capacity factor (logk) by RP-HPLC; assay type: physicochemical; conditions: reversed-phase chromatographic capacity factor, eluent pH 7.0
# Description: Determination of the capacity factor. […] The same analytical method was used with modified eluents: eluent A was 20 mM triethylamine with phosphoric acid (pH 7.0), and eluent B was acetonitrile without additives. The method time was slightly extended, with a 1-minute longer gradient, resulting in an 8-minute program. The capacity factor was calculated with Equation 3: […]
# where k is the capacity factor, tR is the retention time (min) of the compounds and t0 is the dead-time of the column (min).
# [3] = In vitro gastrointestinal permeability assay (GI PAMPA); assay type: in vitro ADME; conditions: for GI PAMPA membrane retention / GI PAMPA penetration: donor pH 6.5, acceptor pH 7.4, 1% DMSO, 37 °C, 4 hours, mean of 3 replicates; for GI PAMPA permeability in words / GI PAMPA membrane retention (MR) in words: wording of the text, outside the class key; for Papp at 4 h, 100 µM: PAMPA
# Description: In vitro gastrointestinal permeability assay. […] The artificial membrane was fabricated by dissolving ʟ-α-phosphatidylcholine (16 mg) and cholesterol (4 mg) in a solvent mixture of chloroform, hexane and dodecane (5/70/25 vol %). Each well of the PAMPA donor plate (MAIPNTR, PVDF membrane, Merck KGaA, Darmstadt, Germany) was coated with 5 μL lipid solution. Thereafter the donor plate was fitted into the acceptor plate (MSSACCEPTOR, Merck KGaA, Darmstadt, Germany) already containing 300 μL PBS (pH 7.4) solutions with 1% DMSO. Finally, 150 μL of the initial solutions was pipetted into the donor plate, the plate sandwich was covered with a wet paper tissue and with a plate lid to avoid evaporation, and the system was incubated at 37 °C for 4 hours. Then samples were taken from the donor and acceptor wells and analyzed along with the initial solutions by HPLC.
# [1] Pe=−2.303/A⋅(t−τss)⋅(1/1+ra)⋅lg[−ra+(1+ra/1−MR)⋅cD(t)/cD(0)]
# [2] MR=1−cD(t)/cD(0)−VAcA(t)/VDcD(0)
# where A is the filter area (0.24 cm^2), t is the incubation time (s), τss is the time to reach steady-state (s), ra is the sink asymmetry ratio approximated with a value of 10^−14, VD and VA are the volumes in the donor (0.15 mL) and the acceptor phase (0.3 mL), cD(t) is the concentration of the compound in the donor phase at time point t (mol/L), cD(0) is the concentration of the compound in the donor phase at time point zero (initial solutions, mol/L), cA(t) is the concentration of the compound in the acceptor phase at time point t (mol/L), cA(0) is the concentration of the compound in the acceptor phase at time point zero (mol/L).
# as §1
# [4] = Metabolic stability assay in human liver microsome fractions; assay type: in vitro ADME; conditions: NADPH, 37 °C; for half-life at 10 µM / CLint scaled at 10 µM: pH 7.4, pooled human liver microsomes; for half-life at 10 µM: read-out: HLM t1/2; for CLint scaled at 10 µM: read-out: HLM Clint (converted)
# Description: Metabolic stability assay in human liver microsome fractions. The metabolic stability of the test compounds was assessed in vitro using pooled liver microsome fractions derived from humans (Xenotech LLC). The assay was conducted in a 96-well plate format according to a standardized protocol, utilizing cofactor-supplemented incubation systems, mainly to mimic phase I oxidative metabolic pathways. Human liver microsome (HLM) fractions were thawed on ice and diluted in 0.05 M potassium phosphate buffer (pH 7.4) to a final protein concentration of 1.25 mg/mL. Test compounds were dissolved in DMSO to create stock solutions of 5 mM. The drug concentration in the final assays was 10 μM. The assay was performed in triplicate. Reaction mixtures containing the diluted HLM fractions and test compounds were pre-incubated for 5 minutes at 37 °C while shaking at 450 rpm. The reaction was initiated by adding the 0.05 M NADPH cofactor mixture to the wells (100 µL per well) for the “with cofactors” conditions or by adding phosphate buffer for the “without cofactors” control. Aliquots (100 µL) were taken at zero time and at pre-defined time points of 30 and 60 minutes and quenched with an equal volume of cold acetonitrile. The samples were centrifuged at 2600 RCF for 10 minutes to pellet proteins. Supernatants were transferred to LC vials and stored at −20 °C until LC–MS/MS analysis. The concentration of the parent compound remaining in each sample was determined using liquid chromatography coupled with tandem mass spectrometry (LC–MS/MS). The percentage of the remaining substrate was calculated relative to the time-zero sample. The natural logarithm of the percentage remaining was plotted against incubation time to determine the first-order elimination rate constant (k) using linear regression. The half-life (t₁/₂) was calculated using Equation 4: […]
# Intrinsic clearance (Clint) was calculated and scaled to in vivo conditions using Equation 5:
# [5] Clint=ln2/t1/2×liver weight (g)/standard body weight (kg)×incubation volume (mL)/HLM protein/well×HLM protein (mg)/gram of liver
# where the HLM protein per gram of liver was equal to 25 and the liver weight per standard body was equal to 49. Testosterone was included as a positive control to confirm metabolic competence of the HLM fractions, with and without cofactors.
# HPLC–MS analysis. The semi-quantitative determination of test compounds was carried out using a Waters Xevo G2-XS QToF mass spectrometer equipped with an electrospray ionization (ESI) source operating in positive ion mode. Chromatographic separation was performed on a Waters XBridgeTM Premier BEH C18 (3.5 μm, 4.6 × 150 mm) column maintained at 40 °C. The mobile phase consisted of water with 0.1% formic acid (A) and acetonitrile with 0.1% formic acid (B). The injection volume was 10 µL. The autosampler was maintained at 5 °C. The gradient elution program shown in Table 4 was applied at a constant flow rate of 1.0 mL/min.
# The mass spectrometer operated in sensitivity mode with a capillary voltage of 3.0 kV, source temperature was 100 °C, and desolvation temperature was 350 °C. The cone gas flow was set to 0 L/h and desolvation gas flow to 800 L/h. LockSpray calibration was performed using leucine enkephalin as the reference compound (m/z 556.2771), introduced at 15 µL/min. Data acquisition was performed in MSE mode with alternating low collision energy (6 eV) and ramped high-energy collision dissociation (20–40 eV). The mass range was set from 50 to 1200 Da. Each function used a scan time of 0.5 s. Data were acquired in the continuum mode. Instrument mass accuracy calibration was verified using sodium formate. The system was controlled with a MassLynx v4.2 SCN996 software.
# [5] = PBS pH 6.5, 100 µM target concentration (1% DMSO), 2 hours, room temperature, mean of 3 replicates, read-out: Kinetic solubility
# [6] = PBS pH 6.5, 100 µM target concentration (1% DMSO), 2 hours, room temperature, mean of 3 replicates
# [7] = class in words, read-out: Kinetic solubility category
# [8] = class in words, read-out: GI PAMPA permeability (Pe) category
# [9] = colour key of Figure 5, read-out: Permeability category (Pe), colouring of Figure 5
# [10] = scaled to in vivo conditions (Equation 5)
Structure (SMILES),"solubility kinetic at 2 h [1, 5]",logk (−) pH 7.0 [2],GI PAMPA membrane retention [3],GI PAMPA penetration [3],other results
CC1=NN(C)S(=O)(=O)c2c1ccc1c(C)c(C)[nH]c21 [Compound 3a],1.5 ± 0.09 µM,0.580,,,
CN1N=C(c2ccccc2)c2ccc3c4c([nH]c3c2S1(=O)=O)CCC4 [Compound 3i],,0.645,,,"Kinetic solubility [1, 6]: 1.7 ± 0.3 µM"
CN1N=C(c2ccccc2)c2ccc3c4c([nH]c3c2S1(=O)=O)CCCC4 [Compound 3j],,0.660,,,Kinetic solubility (no value) ([1]; room temperature): –
"CC1=NN(C)S(=O)(=O)c2c1ccc1c3c([nH]c21)CCCC3 [Compound 3e, 2,4-Dimethyl-2,7,8,9,10,11-hexahydro[1,2,3]thiadiazino[6,5-a]carbazole 1,1-dioxide]",51.4 ± 1.3 µM,0.516,82.3 ± 0.8%,7.1 ± 1.7 10^−6 cm/s,"solubility kinetic at 2 h [1, 7]: > 30 µM; Papp at 4 h, 100 µM [3, 8]: < 10 ×10⁻⁶ cm/s; Papp at 4 h, 100 µM [3, 9]: < 10 ×10⁻⁶ cm/s; GI PAMPA membrane retention (MR) in words [3]: high; half-life at 10 µM ([4]; triplicate): 100 ± 23 min"
CCc1[nH]c2c3c(ccc2c1C)C(C)=NN(C)S3(=O)=O [Compound 3b],31 ± 2.2 µM,0.603,98.5 ± 0.1%,0.0 10^−6 cm/s,"solubility kinetic at 2 h [1, 7]: > 30 µM; GI PAMPA membrane retention (MR) category ([3]; class in words): extremely high (extremely high above 90%); GI PAMPA permeability in words [3]: nearly zero"
CC/C(C)=N/Nc1cccc2c1S(=O)(=O)N(C)N=C2C [(E)-7a],,0.547,61.0 ± 5.1%,33.6 ± 3.0 10^−6 cm/s,"Kinetic solubility [1, 6]: 20.5 ± 0.8 µM; Kinetic solubility in words [1]: moderate to good; GI PAMPA membrane retention (MR) category ([3]; class in words): moderate (moderate under 80%); GI PAMPA permeability (Pe) category ([3]; class in words): good (good above 10 × 10^−6 cm/s); HLM Clint ([4]; pooled human liver microsomes, 10 μM, scaled to in vivo conditions (Equation 5)): 1.2 ± 0.042 mL/h/kg; HLM t1/2 ([4]; pooled human liver microsomes, 10 μM, triplicate): 34 ± 1 min"
CC1=NN(C)S(=O)(=O)c2c1ccc1c3c([nH]c21)CCC3 [Compound 3d],3.2 ± 0.2 µM,0.591,,,
CC1=NN(C)S(=O)(=O)c2c1ccc1c(C)c[nH]c21 [Compound 3c],41.4 ± 0.9 µM,0.567,39.8 ± 0.2%,30.3 ± 4.2 10^−6 cm/s,"solubility kinetic at 2 h [1, 7]: > 30 µM; Kinetic solubility in words [1]: moderate to good; Papp at 4 h, 100 µM [3, 8]: > 10 ×10⁻⁶ cm/s; Papp at 4 h, 100 µM [3, 9]: > 10 ×10⁻⁶ cm/s; GI PAMPA membrane retention (MR) category ([3]; class in words): moderate (moderate under 80%); CLint scaled at 10 µM [4, 10]: 1.42 mL/h/kg; half-life at 10 µM ([4]; triplicate): 29 ± 2 min"
"Cc1c[nH]c2c3c(ccc12)C(c1ccccc1)=NN(C)S3(=O)=O [Compound 3h, 2,7-Dimethyl-4-phenyl-2,9-dihydro[1,2,3]thiadiazino[5,6-g]indole 1,1-dioxide]",8.6 ± 0.3 µM,0.614,,,
Cc1[nH]c2c3c(ccc2c1C)C(c1ccccc1)=NN(C)S3(=O)=O [Compound 3f],5 ± 0.3 µM,0.629,,,

# Now from value to molecule, other results behind:
"solubility kinetic at 2 h [1, 5]",logk (−) pH 7.0 [2],GI PAMPA membrane retention [3],GI PAMPA penetration [3],Structure (SMILES),other results
86.3 ± 3.9 µM,0.626,97.5 ± 0.3%,0.0 10^−6 cm/s,"CC1=NN(C)S(=O)(=O)c2c(NN=C3CCCCC3)cccc21 [Compound 7e, 8-(2-Cyclohexylidenehydrazino)-2,4-dimethyl-2H-1,2,3-benzothiadiazine 1,1-dioxide]","solubility kinetic at 2 h [1, 7]: > 30 µM; GI PAMPA membrane retention (MR) category ([3]; class in words): extremely high (extremely high above 90%); GI PAMPA permeability in words [3]: nearly zero"
,0.637,,,CC1=NN(C)S(=O)(=O)c2c1ccc1c2[nH]c2c3ccccc3ccc12 [Compound 10a],Kinetic solubility (no value) ([1]; room temperature): –
,0.677,,,CCC(CC)=NNc1cccc2c1S(=O)(=O)N(C)N=C2c1ccccc1 [Compound 7g],Kinetic solubility (no value) ([1]; room temperature): –
0.7 ± 0.02 µM,0.645,,,CCC=NNc1cccc2c1S(=O)(=O)N(C)N=C2c1ccccc1 [crude 7h],
,0.685,,,CN1N=C(c2ccccc2)c2ccc3c([nH]c4c5ccccc5ccc34)c2S1(=O)=O [Compound 10b],Kinetic solubility (no value) ([1]; room temperature): –
,0.625,,,CCC(CC)=NNc1cccc2c1S(=O)(=O)N(C)N=C2C [Compound 7b],"Kinetic solubility [1, 6]: 6.2 ± 0.3 µM"
46.9 ± 2.8 µM,0.599,93.3 ± 0.2%,7.6 ± 2.9 10^−6 cm/s,CC1=NN(C)S(=O)(=O)c2c(NN=C3CCCC3)cccc21 [Compound 7d],"solubility kinetic at 2 h [1, 7]: > 30 µM; Papp at 4 h, 100 µM [3, 8]: < 10 ×10⁻⁶ cm/s; Papp at 4 h, 100 µM [3, 9]: < 10 ×10⁻⁶ cm/s; GI PAMPA membrane retention (MR) in words [3]: high; CLint scaled at 10 µM [4, 10]: 1.34 mL/h/kg; half-life at 10 µM ([4]; triplicate): 31 ± 3 min"
